Laboratory results: BigSolDB 2.1

O=C(O)c1cc([N+](=O)[O-])ccc1O
solubility (mole fraction)
Settings	278.15 K	283.15 K	288.15 K	293.15 K	298.15 K	303.15 K	308.15 K	313.15 K	318.15 K	323.15 K
in 1,4-dioxane	–	–	0.105	0.112	0.12	0.129	0.137	0.147	0.158	0.168
in DMF	0.0752	0.0819	0.0894	0.0993	0.111	0.126	0.143	0.161	0.181	0.204
in NMP	0.105	0.111	0.119	0.13	0.141	0.156	0.17	0.187	0.204	0.223
in acetonitrile	0.0327	0.0366	0.0416	0.0481	0.0553	0.0632	0.0724	0.0814	0.0908	0.102
in ethanol	0.0281	0.0307	0.0338	0.0379	0.0429	0.0481	0.0541	0.0605	0.0675	0.0752
in ethyl acetate	0.0202	0.0234	0.027	0.031	0.0355	0.0404	0.0455	0.0509	0.0566	0.063
in ethylene glycol	0.00911	0.0116	0.0142	0.0164	0.0197	0.0233	0.0262	0.0308	0.035	0.0393
in isobutanol	0.0125	0.0149	0.0179	0.0211	0.0252	0.0296	0.0343	0.0383	0.043	0.0495
in isopropanol	0.0255	0.0286	0.0322	0.0367	0.0406	0.046	0.052	0.0575	0.0641	0.0728
in methanol	0.0316	0.0345	0.038	0.0427	0.0479	0.0538	0.0596	0.0661	0.0728	0.0807
in n-butanol	0.0173	0.0203	0.0237	0.0275	0.032	0.0368	0.0421	0.0474	0.0533	0.06
in n-propanol	0.0232	0.0266	0.0302	0.0342	0.0387	0.0433	0.0488	0.0537	0.0597	0.0656
in water	3.03e-05	3.95e-05	5.22e-05	6.76e-05	8.62e-05	0.000107	0.000133	0.000165	0.000202	0.000253
